In patent publication US20110086818A1, “METHODS, COMPOSITIONS, AND KITS FOR TREATING PAIN AND PRURITUS” (priority 2008, published 2011):

Legend:
[1] = test system: voltage-dependent sodium channels; test: whole-cell voltage clamp recordings of sodium current in small (capsaicin-sensitive) DRG neurons; assay type: cell-based, rat; settings: for inhibition (decrease) of sodium current: small capsaicin-sensitive DRG neurons, 5 mM QX-314 (5-minute application), 1 μM capsaicin (1-10 minutes), alone or together, steps from −70 mV, n=25
Protocol: We recorded current through voltage-dependent sodium channels using whole-cell voltage clamp recordings from adult rat DRG neurons. To select for nociceptors, we recorded from small (24±5 μm; n=25) neurons and tested the neurons for the expression of TRPV1 receptors by a short (1-sec) application of 1 μM capsaicin. In 25/25 of small neurons tested, capsaicin produced a prolonged (10±3 sec) inward current (FIG. 1A, upper panel), consistent with the neurons being nociceptors. Sodium currents were elicited by depolarizing steps from a holding potential of −70 mV.
(§1) Dorsal root ganglia from 6-8 week old Sprague-Dawley rats were removed and placed into Dulbecco's Minimum Essential Medium containing 1% penicillin-streptomycin (Sigma), then treated for 90 minutes with 5 mg/ml collagenase, 1 mg/ml Dispase II (Roche, Indianapolis, Ind.) and for 7 minutes with 0.25% trypsin, followed by addition of 2.5% trypsin inhibitor. Cells were triturated in the presence of DNAase I […] (50 U), centrifuged through 15% BSA (Sigma), resuspended in 1 ml Neurobasal medium (Sigma), 10 μM AraC, NGF (50 ng/ml) and GDNF (2 ng/ml) and plated onto poly-lysine (500 μg/ml) and laminin ([…]) coated 35 mm tissue culture dishes (Becton Dickinson) at 8000-9000 per well. Cultures were incubated at 37° C., 5% carbon dioxide. Recordings were made within 48 hours after plating. Average size of small neurons chosen as likely nociceptors was 23±6 μm (n=50) and that of large neurons was 48±8 μM (n=10).
Whole-cell voltage-clamp or current-clamp recordings were made using an Axopatch 200 A amplifier (Axon Instruments, Union City, Calif.) and patch pipettes with resistances of 1-2 MΩ. For voltage-clamp recordings pipette capacitance was reduced by wrapping the shank by Parafilm or coating the shank with Sylgard (Dow Corning, Midland, Mich.). Cell capacitance was compensated for using the amplifier circuitry, and linear leakage currents subtracted using a P/4 procedure. Series resistance (usually 3-7 MO and always less than 10 MΩ) was compensated by ˜80%. Voltage clamp recordings used solutions designed to isolate sodium currents by blocking potassium and calcium currents and with reduced external sodium to improve voltage clamp. Pipette solution was 110 mM CsCl, 1 mM CaCl2, 2 mM MgCl2, 11 mM EGTA, and 10 mM HEPES, pH adjusted to 7.4 with ˜25 mM CsOH. External solution was 60 mM NaCl, 60 mM choline chloride, 4 mM KCl, 2 mM CaCl2, 1 mM MgCl2, 0.1 mM CdCl2, 15 mM tetraethylammonium chloride, 5 mM 4-aminopyridine, 10 mM glucose, and 10 mM HEPES, pH adjusted to 7.4 with NaOH. No correction was made for the small liquid junction potential (−2.2 mV).
Command protocols were generated and data digitized using a Digidata 1200 A/D interface with pCLAMP 8.2 software (Axon Instruments, Union City, Calif.). […]

[2] = test system: adult rats; test: intraplantar injection, spontaneous flinching; assay type: in vivo, rat; settings: first 5 minutes after intraplantar injection; capsaicin 10 μg/10 μL, QX-314 2%
[3] = test system: adult rats; test: intraplantar injection, mechanical threshold for paw withdrawal (von Frey hairs); assay type: in vivo, rat; settings: QX-314 10 μL of 2%, capsaicin 10 μg/10 μL, capsaicin effect at 15 and 30 minutes
Protocol: (§2) FIG. 3. Intraplantar injection of capsaicin (10 μg/10 μL) together with QX-314 (2%, 10 μL) leads to a prolonged local anesthesia to mechanical (von Frey filaments) and thermal noxious stimuli. […] (*=p<0.05, n=6 for each group). […] Arrow indicates cutoff, and numbers of animals not responding to strongest stimulus is indicated for time points with largest effects. (*=p<0.05, n=6 for each group).
We next examined if the combination of capsaicin and QX-314 can reduce pain behavior in vivo. […] In three animals the paw was insensitive to even the highest value von Frey filament (57 g). The elevated mechanical threshold lasted for about three hours and then gradually returned back to basal levels by four hours (FIG. 3A).
(§3) For intraplantar injections, rats were first habituated to handling and tests performed with the experimenter blind to the treatment. Intraplantar injections of vehicle (20% ethanol, 5% Tween 20 in saline, 10 μL) capsaicin (1 μg/μL), QX-314 (2%) or mixture of capsaicin and QX-314 into the left hindpaw were made and mechanical and thermal sensitivities determined using von Frey hairs and radiant heat respectively.

[4] = test system: rats; test: sciatic nerve injection, motor function score and placing reflex
Protocol: (§4) Motor effects were scored according to a scale of 0 (no effect; normal gait and limb placement), 1 (limb movement but with abnormal limb placement and movement) or 2 (complete loss of limb movement). […] For co-application of QX-314 and capsaicin into the para-sciatic nerve region, we injected QX-314 first, followed 10 minutes later by capsaicin, with the idea that QX-314 would be present extracellularly and ready to enter TRPV1 channels as soon as they were activated.
(§5) For sciatic nerve injections, animals were first habituated to handling for 10 days. Lidocaine (0.2% or 2%, 100 μL); QX-314 (0.2%, 100 μL) alone; capsaicin (50 μg in 100 μL) alone, or QX-314 followed by capsaicin (10 minutes interval) were injected into the area of sciatic nerve below the hip joint. Mechanical and thermal thresholds were determined using von Frey filaments and radiant heat. […] Walking, climbing, walking on the rod and placing reflex were examined. […] All experiments were done with the experimenter blinded.

[5] = molecular target: T1, TRPV1 receptors (Rattus norvegicus, UniProt O35433); test: capsaicin-evoked inward current in DRG neurons (test for expression of TRPV1 receptors); assay type: cell-based
T1 construct: Dorsal root ganglia from 6-8 week old Sprague-Dawley rats were removed; endogenous in cells; host or cells: primary cultured dorsal root ganglion neurons from 6-8 week old Sprague-Dawley rats
T1 sequence (O35433 whole entry): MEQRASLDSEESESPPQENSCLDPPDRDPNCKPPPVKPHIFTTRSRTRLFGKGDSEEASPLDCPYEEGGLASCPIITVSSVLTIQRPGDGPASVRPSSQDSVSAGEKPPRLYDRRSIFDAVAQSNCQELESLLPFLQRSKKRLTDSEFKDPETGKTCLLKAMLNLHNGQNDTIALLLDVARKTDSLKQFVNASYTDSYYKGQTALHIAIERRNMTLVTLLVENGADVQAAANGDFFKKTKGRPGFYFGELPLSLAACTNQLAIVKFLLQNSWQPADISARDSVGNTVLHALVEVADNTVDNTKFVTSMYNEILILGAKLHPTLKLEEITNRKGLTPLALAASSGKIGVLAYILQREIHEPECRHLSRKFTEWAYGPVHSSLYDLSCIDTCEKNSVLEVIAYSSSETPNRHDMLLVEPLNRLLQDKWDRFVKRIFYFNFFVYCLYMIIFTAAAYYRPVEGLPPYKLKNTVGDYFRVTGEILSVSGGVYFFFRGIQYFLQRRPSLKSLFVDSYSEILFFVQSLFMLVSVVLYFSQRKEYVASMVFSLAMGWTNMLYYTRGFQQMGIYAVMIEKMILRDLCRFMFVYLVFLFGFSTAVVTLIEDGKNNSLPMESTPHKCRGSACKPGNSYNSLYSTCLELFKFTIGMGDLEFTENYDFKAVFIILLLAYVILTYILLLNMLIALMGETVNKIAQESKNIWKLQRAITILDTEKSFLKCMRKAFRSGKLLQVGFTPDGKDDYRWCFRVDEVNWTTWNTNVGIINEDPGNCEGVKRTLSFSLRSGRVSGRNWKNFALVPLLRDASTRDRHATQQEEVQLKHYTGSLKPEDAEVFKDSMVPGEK
Protocol: QX-314 (5 mM), capsaicin (1 μM or 500 nM), or their combination was applied using custom-designed multibarrel fast drug delivery system placed about 200-250 μm from the neuron. Solution exchange was complete in less than a second.

[6] = test system: voltage-dependent sodium channels; test: whole-cell voltage clamp recordings of sodium current in large (capsaicin-insensitive) DRG neurons; assay type: cell-based, rat; settings: large DRG neurons (>40 μm); 10-minute application; n=10
Text: To test whether the ability of co-applied capsaicin and QX-314 to inhibit sodium current is selective for cells that express TRPV1 receptors, we also recorded from large DRG neurons (soma diameter >40 μm) (FIG. 1A, right). […] As for small diameter neurons, QX-314 applied alone had little or no effect on sodium current (current increased by 8±4% after a 10-minute application, n=10). Unlike small diameter neurons, capsaicin had no effect on sodium current in large diameter neurons (average increase by 3±2% after a 10-minute application, n=10).
as §1, with “Average size of small neurons chosen as likely nociceptors was 23±6 μm (n=50) and that of large neurons was 48±8 μM (n=10).” left out

[7] = hindpaw injection, acute pain-related response (flinches) and analgesia (FIG. 8); assay type: in vivo; settings: injection into the hindpaw, flinches (FIG. 8)
[8] = test system: small DRG neurons; test: current clamp recording of action potentials in small nociceptive-like DRG neurons; assay type: cell-based, rat; settings: QX-314 5 mM, capsaicin 1 μM
[9] = test system: rats; test: sciatic nerve injection, thermal (radiant heat) response latency; assay type: in vivo, rat; settings: QX-314 0.2%, 100 μL, capsaicin 0.5 μg/μL, for 30 min after injection
Protocol: as §4, §5

[10] = test system: rats; test: sciatic nerve injection, mechanical threshold (von Frey filaments); assay type: in vivo, rat; settings: QX-314 0.2%, 100 μL, capsaicin 0.5 μg/μL, for 30 min after injection
Protocol: as §4, §5

[11] = test system: adult rats; test: intraplantar injection, thermal (radiant heat) response latency; assay type: in vivo, rat; settings: QX-314 at 30 min, capsaicin at 15 and 30 min, combination 2 hours after injection, heat applied for 25 seconds
Protocol: as §2
Similar effects were seen examining sensitivity to a standardized noxious radiant heat stimulus. […] This effect remained for 4 hours after the injection (FIG. 3B).
as §3

[12] = small neurons, 1-sec application of 1 μM capsaicin

| duration of complete loss of tactile stimulus-evoked placing reflex ([4]; rat, in vivo) | effect on motor function ([4]; rat, in vivo) | time to full recovery of sensory and motor deficits ([4]; rat, in vivo) [min] | SMILES | inhibition of sodium current ([1]; small dorsal root ganglion neurons, eugenol alone (FIG. 5)) | flinches in 5 min [2] [flinches] | effect on mechanical threshold for withdrawal response [3] | mean motor score ([4]; scale 0-2, sciatic injection, lidocaine 2% at 30 minutes, capsaicin 0.5 μg/μL, 100 μL, QX-314 0.2%, 100 μL followed 10 minutes later by capsaicin) | inward current in large DRG neurons ([5]; large DRG neurons, soma diameter >40 μm, 10 of 10) | duration of prolonged inward current [5, 12] [s] | small neurons tested in which an inward current was produced [5, 12] | increase of sodium current [6] [%] | duration of acute pain-related response following injection [7] | effect on action potential generation / amplitude [8] | effect on thermal response latency [9] | effect on mechanical threshold [10] | inhibition (decrease) of sodium current [1] [%] | effect on thermal response latency (noxious radiant heat) [11] | effect of external application on sodium channels ([1]; external QX-314 alone) |
| --- | --- | --- | --- | --- | --- | --- | --- | --- | --- | --- | --- | --- | --- | --- | --- | --- | --- | --- |
| – | – | – | C=CCc1ccc(O)c(OC)c1 [eugenol, 2-methoxy-4-(2-propenyl)phenol] | 10-20% | – | – | – | – | – | – | – | – | – | – | – | – | – | – |
| – | – | – | COc1cc(CNC(=O)CCCC/C=C/C(C)C)ccc1O [capsaicin] | – | 40±6 | significantly reduced the mechanical threshold | 0.7±0.2 | did not elicit an inward current | 10 ± 3 | 25/25 | 3±2 | approximately 15 min | reduced the action potential amplitude | reduced | reduced | 31±9 | reduced | – |
| at least 30 minutes | complete paralysis of the lower limb | ≤ 45 | CCN(CC)CC(=O)Nc1c(C)cccc1C [lidocaine] | – | – | – | – | – | – | – | – | – | – | – | – | – | – | – |
| – | no effect on motor function | – | CC[N+](CC)(CC)CC(=O)Nc1c(C)cccc1C [QX-314] | – | – | no significant effect | – | – | – | – | 8±4 | – | had no effect | no significant effect | no significant effect | 3±0.5 | transiently reduced the thermal response latency | no effect |
